Laboratory results reported in patent US9012411B2, “Formulations from derivatives of curcumin, paclitaxel, and aspirin” (Organomed Corporation, priority 2009, dated 2015).
Entries after “also recorded” stand apart in the source; their conditions may differ. Where a name gives a salt, the structure may show the parent alone. Marks after values point to notes of the source that are not given here.

What was measured:
[1] = tested on: carrageenan induced rat paw edema; assay: Carrageenan induced rat paw edema; assay type: in vivo, albino rats; conditions: for Paw circumference: Example 8 (in vivo), 100 mg/kg oral with food; for Percent inhibition of paw edema (Std. Error): Example 9, 100 mg/kg oral with food
Description: Animals were kept under 13 hour day night cycle. Animals were given standard diet and water was provided ad, libitum. All animals were acclimatized for at least one week before the experimental session. Animals were divided in to five groups. Each group consisted of 8 animals.
Pedal inflammation in albino rats of either sex was produced according to the method of Winter et al., (Proc Soc Exp Biol Med 1963; 111: 544-7). An injection was made with 0.1 ml of 1% carrageenan (SIGMA) suspension into the right hind foot of each rat in the plantar region. […] Control group 5 was given 0.5 ml saline and groups 1 and 2 received aspirin. Increase in linear paw circumference was measured by tying a piece of cotton thread round the rat's paw, and noting the point of intersection of two ends on a meter scale. This was taken as an index of increase in paw volume, which is a measure of oedema (Bamgbose S O A, Noamesi B K. Planta Med 1981; 42: 392-6). Measurements were taken immediately before and at 1, 2 and 3 hours after carrageenan injection. The inhibitory activity was calculated according to the following formula (Awe S O, Olajide O A, Adeboye J O, Makinde J M. Indian J Pharmacol 1998; 30: 38-42):
[formula] Ct-Linear paw circumference 3 hours after carrageenan injection and Co-Linear paw circumference before carrageenan injection.
Albino rats obtained from central animal house of institute were used in the study. The animals were kept under 12 hour day night cycle. Animals were given standard diet and water was provided ad libitum. All animals were acclimatized for at least one week before the experimental session. Animals were divided into twelve groups in the carrageenan induced paw edema and tail flick method. Each group consisted of 4 animal each.
Animals were divided into eight groups in the carrageenan induced paw edema and tail flick method. Each group consisted of 6 animal each. The groups received various chemicals as given in Table 16 by oral administration with food. The following methods were used to evaluate the activity of the compositions:
Pedal inflammation in albino rats of either sex was produced according to the method of Winter et al. (Proc. Soc. Exp. Biol. Med., 1963, 111: 544-547). An injection was made with 0.1 ml of 1% carrageenan (SIGMA) suspension into the right hind foot of each rat in the plantar region. The various chemicals were given 30 minutes before carrageenan injection. Increase in linear paw circumference was measured by tying a piece of cotton thread round the rat's paw, and noting the point of intersection of two ends on a meter scale. This was taken as an index of increase in paw volume, which is a measure of edema (Bamgbose, S. O. A. & Noamesi, B. K., Planta. Med., 1981, 42: 392-396). Measurements were taken immediately before and at 1, 2 and 3 hours after carrageenan injection. The inhibitory activity was calculated according to the following formula (Awe S O, Olajide O A, Adeboye J O, Makinde J M. Indian J. Pharmacol., 1998; 30: 38-42):
Animals were divided into six groups in the carrageenan induced paw edema and tail flick method. Each group consisted of 8 animals each. Carrageenan-induced rat paw edema and Tail flick test were performed as discussed above in Example 8. Data were analyzed using analysis of variance (ANOVA) with Posthoc Bonferroni multi-comparisons. P<0.05 was considered as statistically significant.

[2] = tested on: tail flick latency in rats; assay: Tail flick test (analgesic activity); assay type: in vivo, albino rats
Description: Rats were screened for tail flip reaction with a cut-off time of 5 seconds. For each animal, the tail flick latency was obtained thrice before drug administration and mean was used as pre-drug latency. The tail flick latencies were measured at 0, 0.5, 1, 1.5, 2 and 3 h after administration chemicals.
Albino rats obtained from central animal house of institute were used in the study. The animals were kept under 12 hour day night cycle. Animals were given standard diet and water was provided ad libitum. All animals were acclimatized for at least one week before the experimental session. […] Each group consisted of 4 animal each.
Rats were screened for tail flip reaction with a cut-off time of 5 seconds. For each animal, the tail flick latency was obtained thrice before drug administration and mean was used as pre-drug latency. The tail flick latencies were measured at 0, 0.5, 1, 1.5, 2 and 3 h after administration of chemicals.
Each group consisted of 8 animals each. […] Data were analyzed using analysis of variance (ANOVA) with Posthoc Bonferroni multi-comparisons. P<0.05 was considered as statistically significant.

[3] = tested on: breast (SKBR3) cancer cell line; assay: Cellular inhibition, Alamar Blue; assay type: cell-based; conditions: for inhibition of proliferation: skbr3, 48 hours
Description: (§1) Assays were performed with 3 cancer cell lines: breast (SKBR3), pancreatic (Panc1), prostate (PC-3) and 1 normal (nor-cancer) cell line (WI-38). Compounds were delivered to the cells after dissolving in DMSO. Five dilutions per compound were tested on a total of 4 cell lines in 96 well plates. Cellular inhibition was measured using Alamar Blue. After addition of compound a 24 hour and 48 hour time point using fluorescent plate reader was taken. Data from plate reader was analyzed in the following way: % inhibition bar graphs, % inhibition line graphs and IC50 growth inhibition values. In Tables 7-14, IC50 units are Molar (M).

[4] = tested on: normal (non-cancer) cell line WI-38; assay: Cellular inhibition, Alamar Blue; assay type: cell-based
Description: as §1

[5] = tested on: pancreatic (Panc1) cancer cell line; assay: Cellular inhibition, Alamar Blue; assay type: cell-based; conditions: for inhibition of proliferation: Panc-1, 48 hours
Description: as §1

[6] = tested on: prostate (PC-3) cancer cell line; assay: Cellular inhibition, Alamar Blue; assay type: cell-based; conditions: for inhibition of proliferation: PC-3, 48 hours
Description: as §1

[7] = tested on: PANC-1 cells; assay: GI50 (50% inhibition of cell growth), MTT assay, 72 hours; assay type: cell-based; conditions: Homo sapiens, PANC-1, 72 h, 1 ng/ml to 10 ug/ml (Example 8)
Description: (§2) The cells were plated onto a 96 well plate and treated with different concentrations of the compounds from 1 ng/ml to 10 ug/ml for 72 hours followed by MTT assay.
(§3) The cells were plated onto a 96 well plate and treated with different concentrations of the compounds from 0.04 ng/ml to 400 ng/ml for 72 hours followed by MTT assay.

[8] = tested on: PC3 cells; assay: as above; assay type: cell-based; conditions: Homo sapiens, PC-3, 72 h, PC3, 72 hours, 1 ng/ml to 10 ug/ml (Example 8)
Description: as §2, §3

[9] = In vitro enzyme hydrolysis in human serum (HPLC); assay type: in vitro ADME; conditions: 25% human serum; for Test compound Rate: rate of decomposition of test compound; for Salicyclic acid Rate: rate of release of salicylic acid; for Test compound Concentration: remaining test compound; for Salicyclic acid Concentration: salicylic acid released from test compound, 0.2 mg/mL
Description: A 25% solution of human serum in 0.01M phosphate buffer was taken and the test compound (glucose aspirin or aspirin) were added to get a concentration of 0.2 mg/mL. The hydrolysis for the rate of release of salicylic acid and the rate of decomposition of the test compound were measured by HPLC.

[10] = tested on: cancer cell lines SKBR3, Panc1, PC-3; assay: Cellular inhibition, Alamar Blue, cancer cell lines taken together; assay type: cell-based; conditions: 24 hours
Description: as §1

[11] = Example 5, 100 and 200 mg/kg i.p., rats
[12] = Example 9, 100 mg/kg oral with food, 30 min
[13] = Example 9, 100 mg/kg oral with food, 60 min
[14] = Example 9, 100 mg/kg oral with food, 90 min
[15] = Example 9, 100 mg/kg oral with food, 120 min
[16] = Example 9, 100 mg/kg oral with food, 180 min
[17] = Example 9, 100 mg/kg oral with food, column headed min

## COc1cc(/C=C/C(=O)CC(=O)/C=C/c2ccc(O)c(OC)c2)ccc1O [Curcumin]
[1]; 0 h
  Paw circumference: 3.2 mm
[1]; 1 h
  Paw circumference: 3.68 mm
[1]; 2 h
  Paw circumference: 3.45 mm
[1]; 3 h
  Paw circumference: 3.53 mm
[2]; Example 8 (in vivo), 100 mg/kg oral with food, 0 min
  Tail flick latency time: 2.67 s
[2]; Example 8 (in vivo), 100 mg/kg oral with food, 30 min
  Tail flick latency time: 2.58 s
[2]; Example 8 (in vivo), 100 mg/kg oral with food, 60 min
  Tail flick latency time: 2.8* seconds
[2]; Example 8 (in vivo), 100 mg/kg oral with food, 90 min
  Tail flick latency time: 3.18* seconds
[2]; Example 8 (in vivo), 100 mg/kg oral with food, 120 min
  Tail flick latency time: 3.03 s
[2]; Example 8 (in vivo), 100 mg/kg oral with food, 180 min
  Tail flick latency time: 2.68 s
[2]; Example 8 (in vivo), oral, 100 mg/kg total (combinations 50 mg/kg each)
  Tail flick / analgesic activity (in words): stronger activity at 60 and 90 minutes
[3]; Homo sapiens, SK-BR-3, SKBR3, 24 hours
  IC50: 84.1 µM
[3]; Homo sapiens, SK-BR-3, SKBR3, 48 hours
  IC50: 99.4 µM
[4]; 24 hours, 100, 150 and 300 uM
  inhibition of normal lung cells (WI-38): over 20%
[4]; Homo sapiens, WI-38, WI38, 24 hours
  IC50: 1000 µM
[4]; Homo sapiens, WI-38, WI38, 48 hours
  IC50: 89.9 µM
[5]; Homo sapiens, PANC-1, PANC1, 24 hours
  IC50: 41.5 µM
[5]; Homo sapiens, PANC-1, PANC1, 48 hours
  IC50: 38.2 µM
[6]; PC3, 24 hours
  IC50: 29.5 µM
[6]; PC3, 48 hours
  IC50: 24.2 µM

## Nc1ccn([C@@H]2O[C@H](CO)[C@@H](O)C2(F)F)c(=O)n1 [NJ-92-1, Gemcitabine.HCl]
[7]
  GI50: 7.18 µg/mL
[8]
  GI50: 3.85 µg/mL

## CC(=O)Oc1ccccc1C(=O)O[C@@H]([C@H](O)[C@H](O)CO)[C@@H](O)C=O [PMN II-168, 3-(2′-Acetyloxybenzoyl)-D-glucose]
[9]; compared with aspirin
  Hydrolysis rate in human serum (in words): much slower rate than aspirin
[9]; decomposition of test compound, 0-180 min
  Average rate, test compound: -3.3e-07 M/min
[9]; 0 min
  Test compound Rate: 0 M/min
  Salicyclic acid Rate: 0 M/min
  Test compound Concentration: 198 µM
  Salicyclic acid Concentration: 0 µM
[9]; 30 min
  Test compound Rate: 1.91e-07 M/min
  Salicyclic acid Rate: 0 M/min
  Test compound Concentration: 203 µM
  Salicyclic acid Concentration: 0 µM
[9]; 60 min
  Test compound Rate: -2.24e-07 M/min
  Test compound Concentration: 184 µM
  Salicyclic acid Concentration: 2.7 µM
[9]; 90 min
  Test compound Rate: -3.62e-07 M/min
  Test compound Concentration: 165 µM
  Salicyclic acid Concentration: 2.75 µM
[9]; 120 min
  Test compound Rate: -2.96e-07 M/min
  Salicyclic acid Rate: 9.11e-07 M/min
  Test compound Concentration: 162 µM
  Salicyclic acid Concentration: 10.9 µM
[9]; 180 min
  Test compound Rate: -4.38e-07 M/min
  Salicyclic acid Rate: 1.97e-07 M/min
  Test compound Concentration: 119 µM
  Salicyclic acid Concentration: 35.4 µM
[9]; release of salicylic acid, 0-180 min
  Average rate, salicyclic acid: 9.08e-08 M/min
[1]; [11]
  Suppression of carrageenan-induced paw edema (in words): significantly suppressed carrageenan-induced paw edema
[2]; [11]
  Tail flick latency / analgesic activity (in words): significant analgesic activity
[3]; SKBR3, 24 hours
  IC50: 201 µM
[3]; SKBR3, 48 hours
  IC50: 87.8 µM
[3]; 150 uM
  inhibition of proliferation: ~60%
[3]; 300 uM
  inhibition of proliferation: approximately 90%
[4]; WI38, 24 hours
  IC50: 376 µM
[4]; WI38, 48 hours
  IC50: 310 µM
[5]; PANC1, 24 hours
  IC50: 399 µM
[5]; PANC1, 48 hours
  IC50: 90.5 µM
[5]; 150 uM
  inhibition of proliferation: ~60%
[5]; 300 uM
  inhibition of proliferation: ~70%
[6]; PC3, 24 hours
  IC50: 83.2 µM
[6]; PC3, 48 hours
  IC50: 81.4 µM
[6]; 150 uM
  inhibition of proliferation: ~65%
[6]; 300 uM
  inhibition of proliferation: ~85%
[10]; 300 uM
  inhibition of cancer cell growth: up to 60%
[10]; four lower concentrations
  inhibition of cancer cell growth: 20%

## Curcumin diglutarate [NJ-104-5]
[1]; 1 hr
  Percent inhibition of paw edema (Std. Error): 49.26 (3.94) %
[1]; 2 hr
  Percent inhibition of paw edema (Std. Error): 37.50 (5.11) %
[1]; 3 hr
  Percent inhibition of paw edema (Std. Error): 20.05 (8.34) %
[2]; Example 9, 100 mg/kg oral
  Analgesic activity, tail flick (in words): strong activity at 90 and 180 minutes; also recorded: strong analgesic activity
[2]; [12]
  Tail flick latency time: 3.5625 s
[2]; [13]
  Tail flick latency time: 3.6125 s
[2]; [14]
  Tail flick latency time: 3.7375 s
[2]; [15]
  Tail flick latency time: 3.05 s
[2]; [16]
  Tail flick latency time: 3.5625 s
[2]; [17]
  Tail flick latency time: 3.05 s

## curcumin-glutarate [MT-76-1]
[3]; SKBR3, 24 hours
  IC50: 169 µM
[3]; SKBR3, 48 hours
  IC50: 118 µM
[4]; WI38, 24 hours
  IC50: 298 µM
[4]; WI38, 48 hours
  IC50: 166 µM
[5]; PANC1, 24 hours
  IC50: 35.4 µM
[5]; PANC1, 48 hours
  IC50: 123 µM
[6]; PC3, 24 hours
  IC50: 127 µM
[6]; PC3, 48 hours
  IC50: 71.6 µM

## diacetylcurcumin [NJ-58-1]
[1]; Example 9, 100 mg/kg oral
  Anti-inflammatory activity, paw edema (in words): strong
[1]; 1 hr, listed as Curcumin diacetate
  Percent inhibition of paw edema (Std. Error): 76%
[1]; 1 hr, listed as NJ-104-4
  Percent inhibition of paw edema (Std. Error): 76.49 (8.35) %
[1]; 2 hr, listed as Curcumin diacetate
  Percent inhibition of paw edema (Std. Error): 80%
[1]; 2 hr, listed as NJ-104-4
  Percent inhibition of paw edema (Std. Error): 80.56 (5.84) %
[1]; 3 hr, listed as Curcumin diacetate
  Percent inhibition of paw edema (Std. Error): 76%
[1]; 3 hr, listed as NJ-104-4
  Percent inhibition of paw edema (Std. Error): 76.74 (8.22) %
[2]; [12]
  Tail flick latency time: 3.675 s
[2]; [13]
  Tail flick latency time: 3.6125 s
[2]; [14]
  Tail flick latency time: 3.6375 s
[2]; [15]
  Tail flick latency time: 3.4375 s
[2]; [16]
  Tail flick latency time: 3.675 s
[2]; [17]
  Tail flick latency time: 3.4375 s
[3]; SKBR3, 24 hours
  IC50: 171 µM
[3]; SKBR3, 48 hours
  IC50: 125 µM
[4]; 24 hours
  inhibition of normal lung cells (WI-38): less than 10%
[4]; WI38, 24 hours
  IC50: 4390 µM
[4]; WI38, 48 hours
  IC50: 155 µM
[5]; PANC1, 24 hours
  IC50: 268 µM
[5]; PANC1, 48 hours
  IC50: 133 µM
[6]; PC3, 24 hours
  IC50: 96.1 µM
[6]; PC3, 48 hours
  IC50: 67 µM
